We go through 43 compounds from US9957271B2, “Substituted bicyclic aza-heterocycles and analogues as sirtuin modulators” (GlaxoSmithKline, LLC, priority 2012, dated 2018).

The target of this assay is T1, SIRT1 (Homo sapiens, UniProt Q96EB6).
T1 sequence (Q96EB6 1-747): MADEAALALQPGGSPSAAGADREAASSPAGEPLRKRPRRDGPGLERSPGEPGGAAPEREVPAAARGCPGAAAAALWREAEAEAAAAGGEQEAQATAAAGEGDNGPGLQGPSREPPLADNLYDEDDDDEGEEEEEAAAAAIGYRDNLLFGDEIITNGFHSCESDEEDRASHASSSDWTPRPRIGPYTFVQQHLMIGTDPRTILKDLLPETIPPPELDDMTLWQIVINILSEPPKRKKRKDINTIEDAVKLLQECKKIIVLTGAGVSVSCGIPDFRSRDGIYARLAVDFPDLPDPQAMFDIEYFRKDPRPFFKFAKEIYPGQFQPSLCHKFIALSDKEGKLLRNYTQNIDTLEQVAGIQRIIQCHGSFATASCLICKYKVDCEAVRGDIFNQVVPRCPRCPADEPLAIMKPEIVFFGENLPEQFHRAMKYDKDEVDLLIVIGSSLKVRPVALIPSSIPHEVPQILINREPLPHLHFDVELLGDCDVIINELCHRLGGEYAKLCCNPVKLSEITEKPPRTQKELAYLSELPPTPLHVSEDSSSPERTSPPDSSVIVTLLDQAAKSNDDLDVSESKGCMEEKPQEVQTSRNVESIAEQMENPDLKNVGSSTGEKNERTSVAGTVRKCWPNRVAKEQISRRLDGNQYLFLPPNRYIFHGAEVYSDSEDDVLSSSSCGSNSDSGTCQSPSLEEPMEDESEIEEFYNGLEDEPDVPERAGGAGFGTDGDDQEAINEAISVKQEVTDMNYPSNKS
Put plainly: TAMRA based mass spectrometry assay of SIRT1 activity. The format is biochemical. The following applies: for TAMRA EC1.5 / TAMRA EC1.5 (μM): concentration giving 150% activation of SIRT1; for Emax: percent maximum fold activation, read-out: TAMRA % Fold Act. The method, boiled down:
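Recombinant N-terminal His-tagged human SIRT1 (10 nM, E. coli) incubated 25 min at 25 °C with 0.5 μM 5TMR-labelled p53-derived acetyl-peptide and 120 μM βNAD+ in Tris-acetate pH 8 buffer with DTT and 0.05% BSA, compound at varying concentrations. Stopped with formic acid; deacetylated peptide or OAADPR measured by mass spectrometry relative to DMSO controls.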

Like-named read-outs stand apart in the source and are kept apart here.

As to `O=C(Nc1cncc(OC[C@@H](O)CO)n1)c1cnc2ccc(-c3ccccc3C(F)(F)F)nn12` [Compound 556, (S)-N-(6-(2,3-dihydroxypropoxy)pyrazin-2-yl)-6-(2-(trifluoromethyl)phenyl)imidazo[1,2-b]pyridazine-3-carboxamide], where the note is “TAMRA peptide substrate”, the “TAMRA EC1.5” value was “A (EC1.5<1 μM)” and the Emax is at least 350%.
In the case of `Cc1cc(NC(=O)c2cnc3ccc(-c4ccccc4C(F)(F)F)nn23)cc(OC[C@H](O)CO)n1` [Compound 557], under “TAMRA peptide substrate”, the “TAMRA EC1.5” value is recorded as “A (EC1.5<1 μM)” and the Emax is at least 350%.
The matching figures for `Cc1nn2ccc(-c3ccccc3C(F)(F)F)nc2c1C(=O)Nc1ccncc1` [Compound 560]: “A (EC1.5<1 μM)” and at least 350%.
For the compound `Cc1nc2c(C)cc(-c3ccccc3C(F)(F)F)nn2c1C(=O)Nc1cccc(N2CC3(COC3)C2)n1` [Compound 562], under “TAMRA peptide substrate”, the “TAMRA EC1.5” value is “A (EC1.5<1 μM)” and the Emax is at least 350%.
With `O=C(Nc1cnn2ccc(-c3ccccc3C(F)(F)F)nc12)c1nccs1` [Compound 563], where the note is “TAMRA peptide substrate”, the “TAMRA EC1.5” value was “A (EC1.5<1 μM)” and the Emax was at least 350%.
For the compound `O=C(Nc1cnc2ccc(N3CC[C@H](F)C3)nn12)c1ccccn1` [Compound 564], for the setting “TAMRA peptide substrate”, the “TAMRA EC1.5” value is on record as “B (EC1.5 1-25 μM)” and the Emax was under 350%.
Regarding `Cc1nn2ccc(-c3ccccc3C(F)(F)F)nc2c1NC(=O)c1ccccn1` [Compound 567, N-(2-methyl-5-(2-(trifluoromethyl)phenyl)pyrazolo[1,5-a]pyrimidin-3-yl)picolinamide], under “TAMRA peptide substrate”, the “TAMRA EC1.5” value is given as “B (EC1.5 1-25 μM)” and the Emax was under 350%.
For `Cc1nn2ccc(-c3ccccc3C(F)(F)F)nc2c1NC(=O)c1ccncc1` [Compound 569] the same measures were “C (EC1.5>25 μM)” and under 350%.
On to `Cc1nn2ccc(-c3ccccc3C(F)(F)F)nc2c1NC(=O)c1ncccn1` [Compound 570], for which, for the setting “TAMRA peptide substrate”, the “TAMRA EC1.5” value is reported as “B (EC1.5 1-25 μM)” and the Emax is under 350%.
As to `Cc1nn2ccc(-c3ccccc3C(F)(F)F)nc2c1NC(=O)c1cccc(CN2CCOCC2)n1` [Compound 573], for the setting “TAMRA peptide substrate”, the “TAMRA EC1.5” value is recorded as “B (EC1.5 1-25 μM)” and the Emax was under 350%.
Consider `Cc1nn2ccc(-c3ccccc3C(F)(F)F)nc2c1NC(=O)c1cccc(O)n1` [Compound 575], for which, where the note is “TAMRA peptide substrate”, the “TAMRA EC1.5” value is on record as “C (EC1.5>25 μM)” and the Emax is under 350%.
Consider `COc1cccc(C(=O)Nc2c(C)nn3ccc(-c4ccccc4C(F)(F)F)nc23)n1` [Compound 576], for which, where the note is “TAMRA peptide substrate”, the “TAMRA EC1.5” value is listed as “C (EC1.5>25 μM)” and the Emax is under 350%.
On to `Cc1cc(C)nc(NC(=O)c2cnc3ccc(N4CCCC(C(F)(F)F)C4)nn23)c1` (centres unmarked) [Compound 579], for which, where the note is “TAMRA peptide substrate”, the “TAMRA EC1.5” value is given as “B (EC1.5 1-25 μM)” and the Emax was under 350%.
Take `O=C(Nc1cnn2ccc(-c3ccccc3OC(F)(F)F)nc12)c1ccccn1` [Compound 581]: where the note is “TAMRA peptide substrate”, the “TAMRA EC1.5” value is recorded as “A (EC1.5<1 μM)” and the Emax is at least 350%.
Consider `O=C(Nc1cnn2ccc(-c3ccccc3OC(F)(F)F)nc12)c1cccnc1` [Compound 582], for which, for the setting “TAMRA peptide substrate”, the “TAMRA EC1.5” value was “B (EC1.5 1-25 μM)” and the Emax is under 350%.
Consider `O=C(Nc1cnn2ccc(-c3ccccc3OC(F)(F)F)nc12)c1ccncn1` [Compound 585], for which, for the setting “TAMRA peptide substrate”, the “TAMRA EC1.5” value is listed as “B (EC1.5 1-25 μM)” and the Emax is at least 350%.
The matching figures for `Cc1cc(-c2ccccc2C(F)(F)F)nn2c(C(=O)Nc3ccnc(OC4CCOCC4)n3)cnc12` [Compound 587]: “A (EC1.5<1 μM)” and at least 350%.
Turning to `Cc1nc(NC(=O)c2cnc3c(C)cc(-c4ccccc4C(F)(F)F)nn23)sc1C` [Compound 588], for the setting “TAMRA peptide substrate”, the “TAMRA EC1.5” value is reported as “B (EC1.5 1-25 μM)” and the Emax is under 350%.
With `O=C(Nc1ccnc(N2CC3(CCO3)C2)n1)c1cnc2ccc(-c3ccccc3C(F)(F)F)nn12` [Compound 592], under “TAMRA peptide substrate”, the “TAMRA EC1.5” value is reported as “A (EC1.5<1 μM)” and the Emax is at least 350%.
Regarding `Cc1nc2c(C)cc(-c3ccccc3C(F)(F)F)nn2c1C(=O)Nc1ccnc(OC2CCOCC2)n1` [Compound 593], for the setting “TAMRA peptide substrate”, the “TAMRA EC1.5” value was “A (EC1.5<1 μM)” and the Emax was at least 350%.
For `COc1nccnc1NC(=O)c1cnc2c(C)cc(-c3ccccc3C(F)(F)F)nn12` [Compound 595] the same measures were “A (EC1.5<1 μM)” and under 350%.
For `CCOc1nccc(NC(=O)c2cnc3c(C)cc(-c4ccccc4C(F)(F)F)nn23)n1` [Compound 596] the same measures were “A (EC1.5<1 μM)” and at least 350%.
Take `Cc1cc(-c2ccccc2C(F)(F)F)nn2c(C(=O)Nc3ccnc(O[C@H]4CCOC4)n3)cnc12` [Compound 601]: for the setting “TAMRA assay”, the “TAMRA EC1.5 (μM)” value is recorded as “A (EC1.5<1 μM)” and the Emax was at least 350%.
On to `COc1cc(NC(=O)c2c(C)nc3ccc(-c4ccccc4C(F)(F)F)nn23)ncn1` [Compound 602], for which, where the note is “TAMRA assay”, the “TAMRA EC1.5 (μM)” value was “A (EC1.5<1 μM)” and the Emax was at least 350%.
For `Cc1cc(C)nc(NC(=O)c2cnn3ccc(-c4ccccc4OC(F)(F)F)nc23)c1` [Compound 605] the same measures were “A (EC1.5<1 μM)” and at least 350%.
On to `O=C(Nc1nccs1)c1cnn2ccc(-c3ccccc3OC(F)(F)F)nc12` [Compound 607], for which, under “TAMRA assay”, the “TAMRA EC1.5 (μM)” value was “B (EC1.5 1-25 μM)” and the Emax is under 350%.
The matching figures for `Cc1ccc(NC(=O)c2cnn3ccc(-c4ccccc4OC(F)(F)F)nc23)nc1` [Compound 608]: “C (EC1.5>25 μM)” and under 350%.
Regarding `Cc1cc(NC(=O)c2cnn3ccc(-c4ccccc4OC(F)(F)F)nc23)cc(C)n1` [Compound 611], under “TAMRA assay”, the “TAMRA EC1.5 (μM)” value was “A (EC1.5<1 μM)” and the Emax is at least 350%.
Regarding `Cc1nccc(NC(=O)c2cnn3ccc(-c4ccccc4OC(F)(F)F)nc23)c1C` [Compound 613], under “TAMRA assay”, the “TAMRA EC1.5 (μM)” value was “A (EC1.5<1 μM)” and the Emax is under 350%.
In the case of `Cc1nc(NC(=O)c2cnn3ccc(-c4ccccc4OC(F)(F)F)nc23)sc1C` [Compound 614], under “TAMRA assay”, the “TAMRA EC1.5 (μM)” value is given as “A (EC1.5<1 μM)” and the Emax was at least 350%.
For `Cc1cccc(NC(=O)c2cnn3ccc(-c4ccccc4OC(F)(F)F)nc23)n1` [Compound 617] the same measures were “A (EC1.5<1 μM)” and at least 350%.
As to `Cc1cc(NC(=O)c2cnn3ccc(-c4ccccc4C(F)(F)F)nc23)ccn1` [Compound 619], under “TAMRA assay”, the “TAMRA EC1.5 (μM)” value was “A (EC1.5<1 μM)” and the Emax is at least 350%.
For the compound `Cc1nccc(NC(=O)c2cnn3ccc(-c4ccccc4C(F)(F)F)nc23)c1C` [Compound 620], where the note is “TAMRA assay”, the “TAMRA EC1.5 (μM)” value is recorded as “B (EC1.5 1-25 μM)” and the Emax was under 350%.
For `Cc1cnc(NC(=O)c2cnn3ccc(-c4ccccc4OC(F)(F)F)nc23)cn1` [Compound 623] the same measures were “A (EC1.5<1 μM)” and at least 350%.
`Cc1ccc(NC(=O)c2cnn3ccc(-c4ccccc4OC(F)(F)F)nc23)c(C)n1` [Compound 625]: for the setting “TAMRA assay”, the “TAMRA EC1.5 (μM)” value is “B (EC1.5 1-25 μM)” and the Emax was under 350%.
For `CCOc1cc(NC(=O)c2cnn3ccc(-c4ccccc4OC(F)(F)F)nc23)ccn1` [Compound 626] the same measures were “A (EC1.5<1 μM)” and at least 350%.
The matching figures for `Cc1cc(NC(=O)c2c(C)nn3ccc(-c4ccccc4C(F)(F)F)nc23)ccn1` [Compound 629]: “A (EC1.5<1 μM)” and at least 350%.
For `Cc1ccc(NC(=O)c2cnn3ccc(-c4ccccc4C(F)(F)F)nc23)cn1` [Compound 631], for the setting “TAMRA assay”, the “TAMRA EC1.5 (μM)” value is given as “A (EC1.5<1 μM)” and the Emax was at least 350%.
Regarding `Cc1cncc(NC(=O)c2cnn3ccc(-c4ccccc4C(F)(F)F)nc23)c1` [Compound 632], where the note is “TAMRA assay”, the “TAMRA EC1.5 (μM)” value is listed as “A (EC1.5<1 μM)” and the Emax is at least 350%.
`COc1ccc(NC(=O)c2cnn3ccc(-c4ccccc4OC(F)(F)F)nc23)nn1` [Compound 635]: for the setting “TAMRA assay”, the “TAMRA EC1.5 (μM)” value is reported as “A (EC1.5<1 μM)” and the Emax is at least 350%.
For `Cc1ccc(NC(=O)c2c(C)nn3ccc(-c4ccccc4C(F)(F)F)nc23)cn1` [Compound 637] the same measures were “A (EC1.5<1 μM)” and at least 350%.
For the compound `Cc1cncc(NC(=O)c2c(C)nn3ccc(-c4ccccc4C(F)(F)F)nc23)c1` [Compound 638], for the setting “TAMRA assay”, the “TAMRA EC1.5 (μM)” value is recorded as “A (EC1.5<1 μM)” and the Emax is at least 350%.
The matching figures for `Cc1ccc(NC(=O)c2cnn3ccc(-c4ccccc4C(F)(F)F)nc23)c(C)n1` [Compound 641]: “B (EC1.5 1-25 μM)” and at least 350%.
